Results as given in patent publication US11021444B2, “Antiviral compounds” (priority 2013, dated 2021).
Where two headings read alike, the source gives them in different places.

How the values were obtained:
[1] = molecular target: recombinant RSV complex (Human respiratory syncytial virus A, UniProt P28887); test: RSV Polymerase Inhibition Assay; format: biochemical
Method: Standard RSV polymerase assays were conducted in the presence of 10 nM recombinant RSV complex in a reaction buffer containing Tris-HCl pH7.5, 6 mM MgCl2, and other additives and substrates including RNA oligonucleotides and radionucleotides. Standard reactions were incubated in 96-well plate format for 2 h at 30° C., in the presence of increasing concentration of inhibitor. The reaction was stopped with 90 μL of 0.1M EDTA, and the reaction product was transferred to a “reading” 96-well plate. After washing of the plate, radiolabeled RNA products were detected according to standard procedures with a Trilux Topcount scintillation counter.

[2] = Cytotoxicity Determination (CCK-8, without addition of virus); format: cell-based; conditions: human, 50% cytotoxicity concentration (CC50)
Method: (§1) CPE reduction assays are performed as described by Sidwell and Huffman et al., Appl. Microbiol. (1971) 22(5):797-801 with slight modifications. HEp-2 cells (ATCC #, CCL-23) are seeded at a density of 1,500 cells/30 μl/well into the 384-well cell plate(s) (Corning #3701) one day prior to the assay. Compounds are added into 384-well cell plates by Labcyte POD 810 Plate Assembler system. Each of the test compounds is provided to duplicate wells of a 384-well cell plate at final concentrations starting from 100 μM or 1 μM using 1/3 stepwise dilutions for 9 points. Quick-thaw Respiratory Syncytial Virus (RSV) long strain (ATCC #VR-26) stock in a 37° C. water bath. Place on ice until ready to use. Viruses are diluted to the concentration of 100 TCID50/30 μL with medium and 30 μl diluted RSV are added into related wells of 384-well cell plates. For each plate, sixteen wells are set aside as uninfected, untreated cell controls (CC), and nine wells per test plate receive virus only as a control for virus replication (VC). The final DMSO concentration of all wells is 1%. Place the plates at 37° C., 5% CO2 for 5 days.
In order to determine the compound cytotoxicity, in parallel, each of the compounds is applied to duplicate wells in a 384-well cell plate at serial final concentrations starting from 100 μM using 1/2 stepwise dilutions for 7 points without addition of virus. Incubate the cells at 37° C., 5% CO2 for 5 days. Add 6 μL CCK-8 into each well and incubate in a CO2 incubator at 37° C. for 3-4 hours.

[3] = system: Respiratory Syncytial Virus (RSV) long strain; test: microbe, parasite or virus in culture; format: cell-based; conditions: human respiratory syncytial virus, Tables A and B list compounds by EC50 band
Method: as §1
After 5 days incubation, observe the CPE of cells in all wells. […] Six μl of cell counting kit-8 reagent (CCK-8, Dojindo Molecular Technologies Inc., CK04-20) are added to each well, which allows colorimetric assays to determine the number of viable cells through the dehydrogenase activity detection. After 3-4 hour incubation, the absorbance of each well is measured with a spectrophotometric plate reader at 450 nm wavelength, using a 630 nm filter as background according to manufacturer's instruction.

[4] = HEp-2, 120 h, read-out: 50% effective concentration (EC50), HEp-2 cells infected with RSV long strain, 5 days, CCK-8 readout
[5] = 120 h, read-out: 50% effective concentration (EC50), HEp-2 cells infected with RSV long strain, 5 days, CCK-8 readout

recombinant RSV complex, sequence (P28887 whole entry): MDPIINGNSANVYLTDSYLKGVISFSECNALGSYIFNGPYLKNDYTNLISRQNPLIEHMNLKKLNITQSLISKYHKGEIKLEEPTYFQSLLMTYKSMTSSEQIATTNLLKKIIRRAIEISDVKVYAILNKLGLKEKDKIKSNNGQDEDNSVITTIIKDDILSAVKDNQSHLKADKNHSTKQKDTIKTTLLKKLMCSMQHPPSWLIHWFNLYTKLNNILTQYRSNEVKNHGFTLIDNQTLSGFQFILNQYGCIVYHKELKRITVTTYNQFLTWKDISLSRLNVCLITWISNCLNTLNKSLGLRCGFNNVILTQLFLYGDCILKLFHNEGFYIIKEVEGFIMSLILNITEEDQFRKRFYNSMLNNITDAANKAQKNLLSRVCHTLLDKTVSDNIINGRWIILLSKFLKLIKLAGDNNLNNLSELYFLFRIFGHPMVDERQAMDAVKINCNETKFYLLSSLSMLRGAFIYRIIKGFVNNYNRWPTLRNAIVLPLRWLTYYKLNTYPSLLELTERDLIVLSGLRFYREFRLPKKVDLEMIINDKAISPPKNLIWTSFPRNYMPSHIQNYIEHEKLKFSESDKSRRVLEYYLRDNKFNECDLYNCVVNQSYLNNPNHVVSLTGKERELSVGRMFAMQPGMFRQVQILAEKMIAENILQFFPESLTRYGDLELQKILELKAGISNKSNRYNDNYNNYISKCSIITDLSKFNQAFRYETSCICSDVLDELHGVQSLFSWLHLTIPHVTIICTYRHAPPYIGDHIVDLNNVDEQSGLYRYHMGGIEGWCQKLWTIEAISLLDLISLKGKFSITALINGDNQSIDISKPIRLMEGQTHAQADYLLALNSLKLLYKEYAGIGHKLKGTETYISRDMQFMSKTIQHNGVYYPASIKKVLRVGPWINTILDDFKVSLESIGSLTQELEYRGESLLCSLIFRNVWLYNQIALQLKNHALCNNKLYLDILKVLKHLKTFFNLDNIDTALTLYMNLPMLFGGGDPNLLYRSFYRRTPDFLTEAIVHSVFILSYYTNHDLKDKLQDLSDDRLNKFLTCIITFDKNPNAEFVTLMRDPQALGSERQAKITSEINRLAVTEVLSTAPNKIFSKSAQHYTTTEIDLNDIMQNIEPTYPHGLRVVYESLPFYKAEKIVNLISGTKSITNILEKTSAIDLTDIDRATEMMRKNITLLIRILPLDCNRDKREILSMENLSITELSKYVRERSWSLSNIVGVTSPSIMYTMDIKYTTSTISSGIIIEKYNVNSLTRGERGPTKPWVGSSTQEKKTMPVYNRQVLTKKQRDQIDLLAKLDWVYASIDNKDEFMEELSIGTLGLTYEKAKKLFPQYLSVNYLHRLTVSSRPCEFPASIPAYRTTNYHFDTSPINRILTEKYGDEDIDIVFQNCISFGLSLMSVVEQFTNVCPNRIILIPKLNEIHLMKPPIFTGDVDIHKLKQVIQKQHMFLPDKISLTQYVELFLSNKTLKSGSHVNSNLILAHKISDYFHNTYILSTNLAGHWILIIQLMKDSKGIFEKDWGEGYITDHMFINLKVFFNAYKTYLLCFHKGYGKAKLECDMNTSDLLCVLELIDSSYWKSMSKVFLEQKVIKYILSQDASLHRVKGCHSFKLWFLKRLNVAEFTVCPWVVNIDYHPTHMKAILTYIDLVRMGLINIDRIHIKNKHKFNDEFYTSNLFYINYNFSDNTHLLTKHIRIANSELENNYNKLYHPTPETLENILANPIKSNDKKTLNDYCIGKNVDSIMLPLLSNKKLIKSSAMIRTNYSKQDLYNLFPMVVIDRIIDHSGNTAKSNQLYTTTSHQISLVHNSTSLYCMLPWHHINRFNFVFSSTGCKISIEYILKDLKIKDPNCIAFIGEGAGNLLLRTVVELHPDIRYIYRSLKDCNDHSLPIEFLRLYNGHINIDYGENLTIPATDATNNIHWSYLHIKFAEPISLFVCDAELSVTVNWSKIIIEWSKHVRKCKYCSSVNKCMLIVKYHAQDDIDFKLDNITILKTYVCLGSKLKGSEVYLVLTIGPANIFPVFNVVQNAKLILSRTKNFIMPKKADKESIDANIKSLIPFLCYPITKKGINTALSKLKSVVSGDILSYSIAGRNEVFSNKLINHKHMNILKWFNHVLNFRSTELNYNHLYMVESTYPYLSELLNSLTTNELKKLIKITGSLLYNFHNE
recombinant RSV complex, sequence (P03421 whole entry, further chain): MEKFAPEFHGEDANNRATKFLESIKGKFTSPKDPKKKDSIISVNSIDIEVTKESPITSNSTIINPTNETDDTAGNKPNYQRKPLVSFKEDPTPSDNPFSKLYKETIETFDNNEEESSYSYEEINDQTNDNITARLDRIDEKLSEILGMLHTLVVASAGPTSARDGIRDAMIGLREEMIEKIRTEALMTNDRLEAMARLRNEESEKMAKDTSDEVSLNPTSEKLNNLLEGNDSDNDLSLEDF

Structure (SMILES)	IC50 [1] [µM]	CC50 at 5 days [2] [µM]	EC50 [3, 4] [µM]	EC50 [3, 5] [µM]
COc1cc(C(=O)NC[C@@](O)(c2cc(C(C)(C)N)cc(-c3ccc(F)c(Cl)c3)n2)C(F)(F)F)ccc1OCCO [Compound 549]	< 1	10 to 100	1 to 50	
COc1cc(C(=O)NCC(O)(c2cc(C(C)(C)NC(C)=O)cc(-c3ccc(F)cc3)n2)C(F)(F)F)ccc1OC[C@@H](C)O (stereo partly drawn) [Compound 620]	< 1	> 100		< 1
COc1ccc(C(=O)NCC(C)(O)c2cccc(-c3csc4c(F)cccc34)n2)cc1OC (stereo not drawn) [Compound 142]	< 1	10 to 100	< 1	
COc1cc(C(=O)NCC(O)(c2ccc(OC)c(-c3ccc(F)c(Cl)c3)n2)C2CNC2)ccc1OC1CC1 (stereo not drawn) [Compound 463]	< 1	10 to 100	1 to 50	
COc1cc(C(=O)NCC(=O)c2cc3c(c(-c4ccc(F)c(Cl)c4)n2)OCC3(C)C)ccc1OC1CCN(C)C1=O (stereo not drawn) [Compound 222]	< 1	10 to 100	< 1	
COc1cc(C(=O)NCC(O)(CO)c2cc3c(c(-c4ccc(F)c(Cl)c4)n2)OCC3(C)C)cc2cccnc12 (stereo not drawn) [Compound 221]	< 1	10 to 100	< 1	
COc1cc(C(=O)NCC(C)(O)c2cc3c(c(-c4ccc(F)c(Cl)c4)n2)NCC3)ccc1OCCF (stereo not drawn) [Compound 286]	< 10	10 to 100	1 to 50	
COc1cc(C(=O)NCC(O)(c2cn(C)nn2)c2ccc(OC)c(-c3ccc(F)c(Cl)c3)n2)ccc1OCCO (stereo not drawn) [Compound 199]	< 1	> 100	< 1	
COc1cc(C(=O)NCC(O)(c2cc3c(c(-c4ccc(F)c(Cl)c4)n2)OCC3(C)C)C(F)(F)F)cc2ccc(C#N)nc12 (stereo not drawn) [Compound 215]	< 1	10 to 100	1 to 50	
Cc1nc(C(=O)NCC(O)(c2cc(C(C)(C)N)cc(-c3ccc(F)c(Cl)c3)n2)C(F)(F)F)cs1 (stereo not drawn) [Compound 279]	< 1	10 to 100	1 to 50	
COc1ccc(C(O)(CNC(=O)c2ccc3c(c2)ncn3C)C(F)(F)F)nc1-c1ccc(F)c(Cl)c1 (stereo not drawn) [Compound 265]	< 10	10 to 100	1 to 50	
COc1cc(C(=O)NCC(N)(CF)c2ccc(OC)c(-c3ccc(F)c(Cl)c3)n2)ccc1OC1CC1 (stereo not drawn) [Compound 518]	< 1	10 to 100	< 1	
COc1cc(C(=O)NCC(O)(c2cc(C(C)(C)N)cc(-c3ccc(I)nc3)n2)C(F)(F)F)ccc1OC1CC1 (stereo not drawn) [Compound 557]	< 1	10 to 100	< 1	
COc1cc(C(=O)NCC(C)(O)c2cc(CO)cc(-c3ccc(F)c(Cl)c3)n2)ccc1OCC1CC1 (stereo not drawn) [Compound 101]	< 1	10 to 100	< 1	
COc1cc(C(=O)NCC(F)(F)c2ccc(OC)c(-c3ccc(F)c(Cl)c3)n2)ccc1OCCO [Compound 150]	< 10	> 100		1 to 50
COc1ccc(C(O)(CNC(=O)c2ccc3ncccc3c2)C(F)(F)F)nc1-c1ccc(F)c(Cl)c1 (stereo not drawn) [Compound 252]	< 1	10 to 100	1 to 50	
CC(C)(N)c1cc(-c2ccc(F)c(Cl)c2)nc(C(O)(CNC(=O)c2cn3cccnc3n2)C(F)(F)F)c1 (stereo not drawn) [Compound 477]	< 10	10 to 100	1 to 50	
COc1ccc(C(O)(CNC(=O)c2ccc3ncn(C)c3c2)C(F)(F)F)nc1-c1ccc(F)c(Cl)c1 (stereo not drawn) [Compound 264]	< 1	10 to 100	1 to 50	
COc1cc(C(=O)NCC(O)(c2ccc(OC)c(-c3ccc(F)cc3)n2)C(F)(F)F)ccc1OCCO (stereo not drawn) [Compound 619]	< 1	10 to 100	< 1	
COc1cc(C(=O)NCC(O)(CN2CCNCC2=O)c2ccc(OC)c(-c3ccc(F)c(Cl)c3)n2)ccc1OCCO (stereo not drawn) [Compound 196]	< 1	> 100	1 to 50	
